According to patent US20240383923A1, “HETEROARYL DERIVATIVE AND USE THEREOF” (VORONOI INC., priority 2022, published 2024):

system: BT-474 cancer cells; experiment: Inhibition of BT-474 cell proliferation (CellTiter-Glo); type: cell-based; settings: Homo sapiens, BT-474 cells, 120 hours
Method: BT-474 cancer cells were cultured by using RPMI-1640 medium containing 20% FBS. The BT-474 cancer cells were seeded to a white clear bottom 96 well plate (Corning) at 5,000 cells per well 48 hours before the BT-474 cancer cells were treated with Example Compounds. Example Compounds were diluted in dimethylsulfoxide (3-fold diluted, total 11 concentrations) and 1 μL each was injected so that the final concentration was 0.2 nM to 10 μM. For the measurement of living cells, the cells were stored at room temperature for 10 minutes using the CellTiter-Glo cell viability reagent (Promega) after a predetermined time (120 hours) after the treatment of Example Compounds, and then the luminescence intensity was measured using a reader (SynergyNeo, Biotek). Each test was repeated three times.
The result value was calculated as a cell growth rate (%) compared to a control group. Graphs were plotted and GI50 values were calculated using the GraphPad Prism version 8.0 program, and the results are shown in Table 18 below.

GI50 | SMILES
100 to 500 nM | C=CC(=O)N1CCC(Nc2cc3c(Nc4cc(C)c(Oc5ccn6ncnc6c5)cc4OC4CN(C)C4)ncnc3cc2OC)CC1 [Example 4, 1-(4-((4-((4-([1,2,4]triazolo[1,5-a]pyridin-7-yloxy)-5-methyl-2-((1-methylazetidin-3-yl)oxy)phenyl)amino)-7-methoxyquinazolin-6-yl)amino)piperidin-1-yl)prop-2-en-1-one]
100 to 500 nM | C=CC(=O)N1CCC(Oc2cc3c(Nc4ccc(Oc5ccn(-c6cnc(OC)nc6)n5)cc4OC)ncnc3cc2OC)CC1 [Example 10, 1-(4-((7-methoxy-4-((2-methoxy-4-((1-(2-methoxypyrimidin-5-yl)-1H-pyrazol-3-yl)oxy)phenyl)amino)quinazolin-6-yl)oxy)piperidin-1-yl)prop-2-en-1-one]
≤ 50 nM | C=CC(=O)N1CCC(Oc2cc3c(Nc4cc(Cl)c(Oc5cccc(OC)c5)cc4OC)ncnc3cc2OC)CC1 [Example 11, 1-(4-((4-((5-chloro-2-methoxy-4-(3-methoxyphenoxy)phenyl)amino)-7-methoxyquinazolin-6-yl)oxy)piperidin-1-yl)prop-2-en-1-one]
≤ 50 nM | COc1cc(Oc2ccn3ncnc3c2)c(C)cc1Nc1ncnc2cc(OC)c(OC3CCN(C(=O)C(F)Cl)CC3)cc12 (stereo not shown) [Example 14, 1-(4-((4-((4-([1,2,4]triazolo[1,5-a]pyridin-7-yloxy)-2-methoxy-5-methylphenyl)amino)-7-methoxyquinazolin-6-yl)oxy)piperidin-1-yl)-2-chloro-2-fluoroethan-1-one]
≤ 50 nM | C=CC(=O)N1CC2CC1CC2Oc1cc2c(Nc3cc(C)c(Oc4ccn5ncnc5c4)cc3OC)ncnc2cc1OC (stereo not shown) [Example 18, 1-(5-((4-((4-([1,2,4]triazolo[1,5-a]pyridin-7-yloxy)-2-methoxy-5-methylphenyl)amino)-7-methoxyquinazolin-6-yl)oxy)-2-azabicyclo[2.2.1]heptan-2-yl)prop-2-en-1-one]
≤ 50 nM | C=CC(=O)N1CC(Oc2cc3c(Nc4cc(C)c(Oc5ccn6ncnc6c5)cc4OC)ncnc3cc2OC)C1 [Example 19, 1-(3-((4-((4-([1,2,4]triazolo[1,5-a]pyridin-7-yloxy)-2-methoxy-5-methylphenyl)amino)-7-methoxyquinazolin-6-yl)oxy)azetidin-1-yl)prop-2-en-1-one]
100 to 500 nM | C=CC(=O)N1CCOc2cc3ncnc(Nc4cc(C)c(Oc5ccn6ncnc6c5)cc4OC)c3cc21 [Example 21, 1-(4-((4-([1,2,4]triazolo[1,5-a]pyridin-7-yloxy)-2-methoxy-5-methylphenyl)amino)-7,8-dihydro-6H-[1,4]oxazino[3,2-g]quinazolin-6-yl)prop-2-en-1-one]
50 to 100 nM | C=CC(=O)Nc1cc2c(Nc3cc(C)c(Oc4ccn5ncnc5c4)cc3OC)ncnc2cc1N1CCC(N2CCOCC2)CC1 [Example 22, N-(4-((4-([1,2,4]triazolo[1,5-a]pyridin-7-yloxy)-2-methoxy-5-methylphenyl)amino)-7-(4-morpholinopiperidin-1-yl)quinazolin-6-yl)acrylamide]
> 500 nM | C=CC(=O)Nc1cc2c(Nc3cc(C)c(Oc4ccn5ncnc5c4)cc3OC)ncnc2cc1N1CCOCC1 [Example 23, N-(4-((4-([1,2,4]triazolo[1,5-a]pyridin-7-yloxy)-2-methoxy-5-methylphenyl)amino)-7-morpholinoquinazolin-6-yl)acrylamide]
≤ 50 nM | COc1cc(Oc2ccn3ncnc3c2)c(C)cc1Nc1ncnc2ccc(NC(=O)/C=C/CN(C)C)c(Cl)c12 [Example 26, (E)-N-(4-((4-([1,2,4]triazolo[1,5-a]pyridin-7-yloxy)-2-methoxy-5-methylphenyl)amino)-5-chloroquinazolin-6-yl)-4-(dimethylamino)but-2-enamide]
≤ 50 nM | C=CC(=O)N1CCN(c2ncc3ncnc(Nc4cc(C)c(Oc5ccn6ncnc6c5)cc4OC)c3n2)CC1 [Example 27, 1-(4-(8-((4-([1,2,4]triazolo[1,5-a]pyridin-7-yloxy)-2-methoxy-5-methylphenyl)amino)pyrimido[5,4-d]pyrimidin-2-yl)piperazin-1-yl)prop-2-en-1-one]
≤ 50 nM | CC#CC(=O)Nc1cc2c(Nc3cc(C)c(Oc4ccn5ncnc5c4)cc3OC)ncnc2cc1OC [Example 28, N-(4-((4-([1,2,4]triazolo[1,5-a]pyridin-7-yloxy)-2-methoxy-5-methylphenyl)amino)-7-methoxyquinazolin-6-yl)but-2-ynamide]
≤ 50 nM | COc1cc2ncnc(Nc3cc(C)c(Oc4ccn5ncnc5c4)cc3OC)c2cc1NC(=O)/C=C/CNC1CCS(=O)(=O)CC1 [Example 38, (E)-N-(4-((4-([1,2,4]triazolo[1,5-a]pyridin-7-yloxy)-2-methoxy-5-methylphenyl)amino)-7-methoxyquinazolin-6-yl)-4-((1,1-dioxidotetrahydro-2H-thiopyran-4-yl)amino)but-2-enamide]
≤ 50 nM | COc1cc2ncnc(Nc3cc(C)c(Oc4ccn5ncnc5c4)cc3OC)c2cc1NC(=O)/C=C/CN1CC2(COC2)C1 [Example 40, (E)-N-(4-((4-([1,2,4]triazolo[1,5-a]pyridin-7-yloxy)-2-methoxy-5-methylphenyl)amino)-7-methoxyquinazolin-6-yl)-4-(2-oxa-6-azaspiro[3.3]heptan-6-yl)but-2-enamide]
≤ 50 nM | COc1cc2ncnc(Nc3cc(C)c(Oc4ccn5ncnc5c4)cc3OC)c2cc1NC(=O)/C(F)=C/C1CCCN1C (stereo not shown) [Example 43, (Z)—N-(4-((4-([1,2,4]triazolo[1,5-a]pyridin-7-yloxy)-2-methoxy-5-methylphenyl)amino)-7-methoxyquinazolin-6-yl)-2-fluoro-3-(1-methylpyrrolidin-2-yl)acrylamide]
≤ 50 nM | COc1cc2ncnc(Nc3cc(C)c(Oc4ccn5ncnc5c4)cc3OC)c2cc1NC(=O)/C(F)=C\[C@@H]1CCCN1C [Example 44, (S,E)-N-(4-((4-([1,2,4]triazolo[1,5-a]pyridin-7-yloxy)-2-methoxy-5-methylphenyl)amino)-7-methoxyquinazolin-6-yl)-2-fluoro-3-(1-methylpyrrolidin-2-yl)acrylamide]
≤ 50 nM | COc1cc2ncnc(Nc3cc(C)c(Oc4cc5ncnn5cn4)cc3OC)c2cc1NC(=O)/C(F)=C\[C@H]1CCCN1C [Example 47, (R,E)-N-(4-((4-([1,2,4]triazolo[1,5-c]pyrimidin-7-yloxy)-2-methoxy-5-methylphenyl)amino)-7-methoxyquinazolin-6-yl)-2-fluoro-3-(1-methylpyrrolidin-2-yl)acrylamide]
≤ 50 nM | COc1cc2ncnc(Nc3cc(C)c(Oc4cc5ncnn5cn4)cc3OC)c2cc1NC(=O)/C(F)=C/[C@H]1CCCN1C [Example 48, (R,Z)—N-(4-((4-([1,2,4]triazolo[1,5-c]pyrimidin-7-yloxy)-2-methoxy-5-methylphenyl)amino)-7-methoxyquinazolin-6-yl)-2-fluoro-3-(1-methylpyrrolidin-2-yl)acrylamide]
≤ 50 nM | COc1cc2ncnc(Nc3cc(F)c(Oc4ccn5ncnc5c4)cc3OC)c2cc1NC(=O)/C(F)=C\[C@H]1CCCN1C [Example 49, (R,E)-N-(4-((4-([1,2,4]triazolo[1,5-a]pyridin-7-yloxy)-5-fluoro-2-methoxyphenyl)amino)-7-methoxyquinazolin-6-yl)-2-fluoro-3-(1-methylpyrrolidin-2-yl)acrylamide]
≤ 50 nM | COc1cc2ncnc(Nc3cc(C)c(Oc4ccc5c(c4)ncn5C)cc3OC)c2cc1NC(=O)/C(F)=C/[C@H]1CCCN1C [Example 56, (R,Z)-2-fluoro-N-(7-methoxy-4-((2-methoxy-5-methyl-4-((1-methyl-1H-benzo[d]imidazol-5-yl)oxy)phenyl)amino)quinazolin-6-yl)-3-(1-methylpyrrolidin-2-yl)acrylamide]
≤ 50 nM | COc1cc2ncnc(Nc3cc(C)c(Oc4ccc5c(c4)ncn5C)cc3OC)c2cc1NC(=O)/C(F)=C\[C@H]1CCCN1C [Example 57, (R,E)-2-fluoro-N-(7-methoxy-4-((2-methoxy-5-methyl-4-((1-methyl-1H-benzo[d]imidazol-5-yl)oxy)phenyl)amino)quinazolin-6-yl)-3-(1-methylpyrrolidin-2-yl)acrylamide]
≤ 50 nM | COc1cc2ncnc(Nc3cc(Cl)c(Oc4ccc5c(c4)ncn5C)cc3OC)c2cc1NC(=O)/C(F)=C/[C@H]1CCCN1C [Example 58, (R,Z)—N-(4-((5-chloro-2-methoxy-4-((1-methyl-1H-benzo[d]imidazol-5-yl)oxy)phenyl)amino)-7-methoxyquinazolin-6-yl)-2-fluoro-3-(1-methylpyrrolidin-2-yl)acrylamide]
≤ 50 nM | COc1cc2ncnc(Nc3cc(Cl)c(Oc4ccc5c(c4)ncn5C)cc3OC)c2cc1NC(=O)/C(F)=C\[C@H]1CCCN1C [Example 59, (R,E)-N-(4-((5-chloro-2-methoxy-4-((1-methyl-1H-benzo[d]imidazol-5-yl)oxy)phenyl)amino)-7-methoxyquinazolin-6-yl)-2-fluoro-3-(1-methylpyrrolidin-2-yl)acrylamide]
≤ 50 nM | COc1cc2ncnc(Nc3cc(F)c(Oc4ccc5c(c4)ncn5C)cc3OC)c2cc1NC(=O)/C(F)=C\[C@H]1CCCN1C [Example 60, (R,E)-2-fluoro-N-(4-((5-fluoro-2-methoxy-4-((1-methyl-1H-benzo[d]imidazol-5-yl)oxy)phenyl)amino)-7-methoxyquinazolin-6-yl)-3-(1-methylpyrrolidin-2-yl)acrylamide]
≤ 50 nM | COc1cc2ncnc(Nc3cc(F)c(Oc4ccc5c(c4)ncn5C)cc3OC)c2cc1NC(=O)/C(F)=C/[C@H]1CCCN1C [Example 61, (R,Z)-2-fluoro-N-(4-((5-fluoro-2-methoxy-4-((1-methyl-1H-benzo[d]imidazol-5-yl)oxy)phenyl)amino)-7-methoxyquinazolin-6-yl)-3-(1-methylpyrrolidin-2-yl)acrylamide]
